The text below walks through data of ChEMBL document CHEMBL1201862, “PubChem BioAssay data set” (2004).

Active and inactive are the calls of the source. Bounds are passed on as bounds.

The target of test [1] is T1, Heat shock 70 kDa protein 1A (Homo sapiens, UniProt P0DMV8). The experiment in a line: Hsp70 inhibitors, biochemical, TR-FRET (AID 786). (In general: Time-resolved FRET reads energy transfer from a long-lived donor to a nearby acceptor.)
In test [2] the target is T2, Endoribonuclease toxin MazF (Escherichia coli K-12, UniProt P0AE70).
T2 sequence (P0AE70 whole entry): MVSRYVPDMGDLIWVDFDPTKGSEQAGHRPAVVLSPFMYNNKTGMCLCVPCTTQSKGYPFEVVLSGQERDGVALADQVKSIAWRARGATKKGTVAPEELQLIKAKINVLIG
The test is described as follows: MazF toxin RNase activators, dose response, biochemical, fluorescence, single-stranded RNA substrate, uHTS hits (AID 588481). In kind it is functional.

The target of test [3] is T3, Zinc finger protein mex-5 (Caenorhabditis elegans, UniProt Q9XUB2).
T3 sequence (Q9XUB2 whole entry): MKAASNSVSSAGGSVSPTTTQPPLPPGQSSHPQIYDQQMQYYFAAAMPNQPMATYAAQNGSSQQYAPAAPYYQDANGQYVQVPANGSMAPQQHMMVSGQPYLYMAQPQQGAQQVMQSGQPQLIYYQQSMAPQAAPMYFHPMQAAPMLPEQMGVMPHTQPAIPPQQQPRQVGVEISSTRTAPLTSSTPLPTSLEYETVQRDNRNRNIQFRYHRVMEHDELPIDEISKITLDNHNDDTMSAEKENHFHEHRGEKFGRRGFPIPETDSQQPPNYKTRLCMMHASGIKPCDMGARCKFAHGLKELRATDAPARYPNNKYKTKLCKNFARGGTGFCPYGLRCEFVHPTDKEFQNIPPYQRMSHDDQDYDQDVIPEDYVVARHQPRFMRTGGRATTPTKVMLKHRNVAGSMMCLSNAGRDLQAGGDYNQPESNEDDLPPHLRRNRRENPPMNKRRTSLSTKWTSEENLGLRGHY
The experiment in a line: MEX-5/TCR-2 RNA interaction inhibitors, dose response, biochemical, C. elegans, fluorescence polarization (AID 1960).

Test [4] addresses T1, Heat shock 70 kDa protein 1A. The test is described as follows: Hsp70 inhibitors, probe displacement, primary screen, biochemical, fluorescence polarization (AID 583).
The target of test [5] is T4, RNA-binding protein pos-1 (Caenorhabditis elegans, UniProt G5EF15).
T4 sequence (G5EF15 whole entry): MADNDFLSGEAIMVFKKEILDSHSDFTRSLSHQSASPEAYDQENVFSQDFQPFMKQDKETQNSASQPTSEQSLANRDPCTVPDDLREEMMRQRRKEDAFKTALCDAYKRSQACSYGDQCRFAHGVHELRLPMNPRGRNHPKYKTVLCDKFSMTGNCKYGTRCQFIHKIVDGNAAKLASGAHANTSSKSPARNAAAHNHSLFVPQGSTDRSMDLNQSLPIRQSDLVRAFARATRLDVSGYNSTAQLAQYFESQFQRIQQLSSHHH
The experiment in a line: inhibitors of POS-1/mex-3 RNA binding, dose response, biochemical, fluorescence polarization (AID 1964).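 Also: purified POS-1 fused to maltose binding protein made in E. coli; potency of compounds blocking POS-1 binding to fluorescent RNA.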

The target in test [6] is T2, Endoribonuclease toxin MazF. The experiment in a line: fluorescent RNA oligo signal without MazF, dose response, counter-screen for MazEF activator project, biochemical, fluorescence, single-stranded RNase substrate (AID 588502). In kind it is functional. Background: Counterscreens check selectivity or assay interference.
Test [7] concerns the target T5, Caspase-6 (Homo sapiens, UniProt P55212).
T5 sequence (P55212 whole entry): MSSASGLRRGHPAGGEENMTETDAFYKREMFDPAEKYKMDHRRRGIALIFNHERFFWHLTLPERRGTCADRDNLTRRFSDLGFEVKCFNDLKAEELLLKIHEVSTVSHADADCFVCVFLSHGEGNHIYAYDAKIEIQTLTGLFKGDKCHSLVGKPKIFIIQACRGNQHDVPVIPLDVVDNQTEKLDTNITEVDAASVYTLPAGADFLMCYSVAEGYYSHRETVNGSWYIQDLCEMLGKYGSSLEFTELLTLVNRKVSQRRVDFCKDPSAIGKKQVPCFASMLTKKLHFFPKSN
The test is described as follows: human caspase-6 inhibitors, dose response, biochemical, VEID-R110 fluorescence, cherry-pick (AID 720632).

Test [8] in a line: inhibitors of intracellular T. cruzi replication, confirmation, NIH3T3 host cells, beta-gal luminescence (AID 2044).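 Also: intracellular parasites grown in NIH/3T3 mouse fibroblasts as host cells; luminescent beta-galactosidase reporter signal from transgenic T. cruzi replicating inside host cells; inhibitors lower the luminescence signal.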 In kind it is functional, cell-based.
Test [9] is described as follows: Luminescence Cell-Based Dose Response HTS to Identify Inhibitors of 5'UTR Stem-Loop Driven Prion Protein mRNA Translation in H4 Neuroglioblastoma Cells. [Related pubchem assays: 1827 (Project Summary), 1813 (Primary HTS)]. In kind it is functional.
The nature of test [10]: inhibitors of SNCA 5'UTR-driven reporter translation, confirmation, H4 neuroglioma cells, luminescence (AID 1988). In kind it is functional, cell-based.
Test [11] has as its target Nonstructural protein 1 (Influenza A virus, UniProt Q194T2). The format is functional, Influenza A virus (A/California/07/2009(H1N1)).
Test [12] has as its system INS1. The test is described as follows: beta cell apoptosis inhibitors, cytokine rescue, dose response, luminescence, retest (AID 449756).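 Also: cell death triggered by IL-1 beta plus TNF-alpha plus IFN-gamma mixture; protective hits raise ATP signal compared with cytokine alone wells.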 In kind it is functional, cell-based. The note with it: Rattus norvegicus.
The nature of test [13]: NIH-3T3 fibroblast cytotoxicity, dose response, cytotoxicity control, cell-based, fluorescence, Alamar Blue, secondary assay (AID 2327).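 Also: NIH-3T3 mouse fibroblasts cultured with fluconazole at 8 µg/mL.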 In kind it is functional.
Test [14] in a line: C. albicans growth with fluconazole, confirmation, fluorescence, retest (AID 2467). The format is functional, cell-based.
Test [15] is described as follows: cytotoxicity toward NIH3T3 fibroblasts, dose response, counter-screen, cell-based, ATP luminescence, mouse fibroblasts (AID 2010).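 Also: cells exposed to compound for about 90 hours before reading.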 The format is functional.
Test [16] can be described thus: inhibitors of firefly luciferase expression or activity, dose response, H4 neuroglioma cells, luminescence (AID 1990). In kind it is functional, cell-based.
Test [17] can be described thus: Luminescence-based counterscreen assay for KLF5 inhibitors: dose response cell-based high throughput screening assay to identify cytotoxic compounds using the IEC-6 intestinal epithelial cell line. [Related pubchem assays: 1700 (Primary screen.), 1834 (Confirmation screen.), 1858 (Summary AID.), 1905 (Counterscreen.)]. In kind it is functional.
Test [18] can be described thus: inhibitors of Bluetongue virus cytopathic effect, confirmation, arbovirus, BSR cells (AID 1250).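 Also: protection from viral cytopathic effect measured as cell viability by ATP luminescence.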 The format is functional.
For test [19], the target named is T6, Kappa-type opioid receptor (Homo sapiens, UniProt P41145). The format is functional.
T6 sequence (P41145 whole entry): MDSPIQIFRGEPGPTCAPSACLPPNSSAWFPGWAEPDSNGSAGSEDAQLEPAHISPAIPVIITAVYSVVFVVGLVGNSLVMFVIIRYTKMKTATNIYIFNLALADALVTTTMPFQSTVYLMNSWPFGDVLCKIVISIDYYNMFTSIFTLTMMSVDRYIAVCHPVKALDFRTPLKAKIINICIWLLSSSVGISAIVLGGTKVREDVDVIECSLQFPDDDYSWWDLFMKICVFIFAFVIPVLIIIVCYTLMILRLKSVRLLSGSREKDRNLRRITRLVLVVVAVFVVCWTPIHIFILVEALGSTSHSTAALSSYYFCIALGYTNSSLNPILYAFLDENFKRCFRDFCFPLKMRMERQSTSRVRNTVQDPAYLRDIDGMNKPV
The target of test [20] is T6, Kappa-type opioid receptor. The format is functional. This is another data set of the same source.
Test [21] in a line: HeLa cell cytotoxicity, dose response, cytotoxicity control for MgcRacGAP inhibitor project (AID 624300). The format is functional.
Test [22] deals with Matrix metalloproteinase-14 (Homo sapiens, UniProt P50281). The experiment in a line: Dose Response confirmation of uHTS hits for a small molecule inhibitors of MT1-MMP activation in a fluorescence assay set 1. The format is functional.
Test [23] in a line: enhancers of respiration in Yfh1-depleted yeast, dose response, Friedreich's ataxia, plus single-dose screen (AID 1465).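 Also: yeast depleted of Yfh1p frataxin homolog grown on glycerol needing respiration; WST-1 tetrazolium dye reduction as measure of cellular dehydrogenase metabolic activity.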 The format is functional.
In test [24] the target is Beta-galactosidase (Escherichia coli, UniProt Q8VNN2). In kind it is functional.
Beta-galactosidase, sequence (Q8VNN2 whole entry): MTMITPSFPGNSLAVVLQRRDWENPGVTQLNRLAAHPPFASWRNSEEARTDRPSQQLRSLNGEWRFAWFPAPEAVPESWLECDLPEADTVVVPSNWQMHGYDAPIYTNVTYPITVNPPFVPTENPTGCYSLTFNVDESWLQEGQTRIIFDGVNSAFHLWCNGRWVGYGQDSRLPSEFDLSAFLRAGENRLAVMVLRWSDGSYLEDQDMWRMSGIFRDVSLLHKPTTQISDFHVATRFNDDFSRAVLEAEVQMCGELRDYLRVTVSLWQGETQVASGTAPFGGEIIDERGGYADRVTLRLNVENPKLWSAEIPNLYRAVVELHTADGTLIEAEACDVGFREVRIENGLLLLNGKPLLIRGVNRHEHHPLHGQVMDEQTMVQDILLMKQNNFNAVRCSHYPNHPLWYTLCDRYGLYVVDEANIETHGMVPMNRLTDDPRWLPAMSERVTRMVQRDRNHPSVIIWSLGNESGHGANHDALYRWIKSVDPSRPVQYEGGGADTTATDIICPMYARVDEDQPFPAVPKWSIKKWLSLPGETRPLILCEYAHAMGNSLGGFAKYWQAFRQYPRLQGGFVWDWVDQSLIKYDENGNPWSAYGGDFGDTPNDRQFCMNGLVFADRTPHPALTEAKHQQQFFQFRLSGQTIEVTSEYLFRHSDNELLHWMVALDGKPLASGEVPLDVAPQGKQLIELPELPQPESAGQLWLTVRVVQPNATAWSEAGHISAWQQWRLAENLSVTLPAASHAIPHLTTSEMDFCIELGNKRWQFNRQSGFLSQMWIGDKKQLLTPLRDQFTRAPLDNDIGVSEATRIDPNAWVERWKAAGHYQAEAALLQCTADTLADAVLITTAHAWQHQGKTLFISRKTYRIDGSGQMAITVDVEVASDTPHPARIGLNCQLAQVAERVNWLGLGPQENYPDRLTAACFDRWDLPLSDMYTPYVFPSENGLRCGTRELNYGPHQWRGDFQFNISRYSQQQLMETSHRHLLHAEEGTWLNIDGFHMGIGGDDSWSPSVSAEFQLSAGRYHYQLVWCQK
The target in test [25] is T7, Rac GTPase-activating protein 1 (Homo sapiens, UniProt Q9H0H5).
T7 sequence (Q9H0H5 whole entry): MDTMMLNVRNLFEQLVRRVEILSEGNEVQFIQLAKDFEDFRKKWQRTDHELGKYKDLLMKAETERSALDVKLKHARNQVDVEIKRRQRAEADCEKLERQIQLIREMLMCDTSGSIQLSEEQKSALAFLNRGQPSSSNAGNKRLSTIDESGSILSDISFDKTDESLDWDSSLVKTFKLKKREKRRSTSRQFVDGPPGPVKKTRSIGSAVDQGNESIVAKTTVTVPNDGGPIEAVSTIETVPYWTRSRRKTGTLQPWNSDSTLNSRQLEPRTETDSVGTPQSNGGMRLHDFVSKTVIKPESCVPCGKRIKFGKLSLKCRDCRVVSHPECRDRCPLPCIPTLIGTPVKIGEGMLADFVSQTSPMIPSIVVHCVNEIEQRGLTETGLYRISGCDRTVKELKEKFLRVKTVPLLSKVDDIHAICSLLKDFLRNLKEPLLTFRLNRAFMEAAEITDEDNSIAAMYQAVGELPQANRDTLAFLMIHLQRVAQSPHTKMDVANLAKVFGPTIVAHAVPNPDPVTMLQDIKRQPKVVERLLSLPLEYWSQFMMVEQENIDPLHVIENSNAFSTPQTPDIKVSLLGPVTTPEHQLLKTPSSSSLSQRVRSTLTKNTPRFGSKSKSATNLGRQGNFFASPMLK
The experiment in a line: MgcRacGAP GTPase-activating activity inhibitors, confirmation, biochemical, ADP Hunter fluorescence, primary and confirmatory (AID 624330). In kind it is functional.

For test [26], the target named is T8, Neuropeptide Y receptor type 1 (Homo sapiens, UniProt P25929).
T8 sequence (P25929 whole entry): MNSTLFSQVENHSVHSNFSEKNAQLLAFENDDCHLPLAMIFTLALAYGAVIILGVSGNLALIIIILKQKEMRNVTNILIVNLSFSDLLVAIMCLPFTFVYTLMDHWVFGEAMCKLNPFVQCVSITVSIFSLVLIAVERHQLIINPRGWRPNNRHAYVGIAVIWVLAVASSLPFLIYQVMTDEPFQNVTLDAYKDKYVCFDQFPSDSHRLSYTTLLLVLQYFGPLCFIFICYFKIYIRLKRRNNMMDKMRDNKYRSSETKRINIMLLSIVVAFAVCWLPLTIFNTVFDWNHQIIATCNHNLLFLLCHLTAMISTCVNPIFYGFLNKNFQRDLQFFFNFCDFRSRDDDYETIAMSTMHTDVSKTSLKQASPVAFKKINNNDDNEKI
The experiment in a line: Fluorescence-based counterscreen for agonists of NPY-Y2: cell-based high-throughput dose response assay for agonists of NPY-Y1. In kind it is functional.

Test [27] relates to HEK293. The test is described as follows: Fluorescence-based counterscreen for potentiators or agonists of NPY-Y2: cell-based high-throughput dose response assay to identify inhibitors of cyclic nucleotide gated ion channel (CNGC) activity. In this assay, the parental HEK293 cell line transfected with a cyclic-nucleotide gated ion channel (CNGC)-based cAMP sensor is used to measure inhibition of isoproterenol-induced CNGC activity by test compound. In kind it is functional. The note with it: Homo sapiens.

Test [28] addresses T9, Neuropeptide Y receptor type 2 (Homo sapiens, UniProt P49146).
T9 sequence (P49146 whole entry): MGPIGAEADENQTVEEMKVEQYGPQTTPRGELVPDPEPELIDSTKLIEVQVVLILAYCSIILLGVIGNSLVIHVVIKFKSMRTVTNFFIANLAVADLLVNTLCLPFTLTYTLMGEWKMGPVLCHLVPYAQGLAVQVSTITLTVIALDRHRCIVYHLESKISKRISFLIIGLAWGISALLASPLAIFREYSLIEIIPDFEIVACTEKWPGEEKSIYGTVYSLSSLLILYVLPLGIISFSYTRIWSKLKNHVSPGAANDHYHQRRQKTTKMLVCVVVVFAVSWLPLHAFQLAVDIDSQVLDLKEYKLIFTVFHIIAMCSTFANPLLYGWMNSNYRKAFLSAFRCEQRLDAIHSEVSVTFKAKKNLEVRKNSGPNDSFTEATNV
The test is described as follows: Fluorescence-based cell-based high-throughput dose response assay for agonists of NPY-Y2. [Related pubchem assays: 1703 (Screening assay (CNGC inhibitors).), 1359 (Screening assay (NPY-Y2 potentiators or agonists).), 1304 (Screening assay (NPY-Y1 potentiators or agonists).), 1710 (Screening assay (NPY-Y2 agonists).), 1791 (Summary AID.)]. In kind it is functional.

T1 sequence (P0DMV8 whole entry): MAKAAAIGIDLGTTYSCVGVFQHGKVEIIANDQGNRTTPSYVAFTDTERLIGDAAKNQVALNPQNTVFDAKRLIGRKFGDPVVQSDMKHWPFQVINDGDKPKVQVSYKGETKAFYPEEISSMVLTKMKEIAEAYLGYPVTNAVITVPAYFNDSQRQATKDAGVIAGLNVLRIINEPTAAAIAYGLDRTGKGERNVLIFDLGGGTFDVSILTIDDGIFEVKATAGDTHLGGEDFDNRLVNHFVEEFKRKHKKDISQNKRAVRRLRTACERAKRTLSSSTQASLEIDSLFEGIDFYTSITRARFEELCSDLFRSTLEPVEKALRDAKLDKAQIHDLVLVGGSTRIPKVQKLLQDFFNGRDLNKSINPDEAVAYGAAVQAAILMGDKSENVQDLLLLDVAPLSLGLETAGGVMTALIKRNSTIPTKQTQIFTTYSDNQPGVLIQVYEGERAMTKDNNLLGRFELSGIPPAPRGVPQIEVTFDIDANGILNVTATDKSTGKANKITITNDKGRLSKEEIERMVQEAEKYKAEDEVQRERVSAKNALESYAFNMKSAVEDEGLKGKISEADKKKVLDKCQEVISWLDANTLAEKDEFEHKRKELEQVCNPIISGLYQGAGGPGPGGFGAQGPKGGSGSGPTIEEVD
Nonstructural protein 1, sequence (Q194T2 whole entry): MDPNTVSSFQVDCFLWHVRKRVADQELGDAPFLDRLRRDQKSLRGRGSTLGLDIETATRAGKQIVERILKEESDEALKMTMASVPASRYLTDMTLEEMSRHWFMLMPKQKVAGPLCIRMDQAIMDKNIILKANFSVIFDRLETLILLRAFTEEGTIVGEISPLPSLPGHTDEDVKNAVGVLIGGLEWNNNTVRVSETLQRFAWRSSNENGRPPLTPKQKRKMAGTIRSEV

As a reminder, the IC50 is the concentration that inhibits the measured activity by half. The term EC50 denotes the concentration needed to bring the measured effect to its halfway point. Consider `CCOn1c(=O)c(-c2cc3ccccc3o2)[n+]([O-])c2ccccc21`, for which the IC50 in test [1] and in test [4] was > 100 µM (not active) throughout. Also, the EC50 in test [2] is > 99 µM (inactive); in test [3], 180 µM (inconclusive); in [5], 13.4 µM (inconclusive); in test [6] it was 30.9 µM (inactive).
Usually AC50 stands for the concentration at which the activity in the assay is half-maximal. Regarding `NS(=O)(=O)c1ccc(N=Nc2ccc(O)c3ncccc23)cc1`, the AC50 in test [7] is 1.58 µM (active); in test [12], 3.45 µM (active). Further, the EC50 is 4.07 µM (active) in test [8]; 8.29 µM (active) in [9]; 5.67 µM (active) in test [10]; 32.2 µM (active) in [13]; 1.95 µM (active) in test [14]; 10.4 µM (active) in test [15]. Further, the EC50 in [16] was 9.04 µM (active). For the same compound, the concentration for half-maximal inhibition (IC50) in [11] was 7.62 µM (active); in test [17] it was 10.7 µM (not active).
With `Cc1ccc(C2C=C(c3ccc4c(c3)OCO4)Nc3ncnn32)cc1` (stereo not drawn), the IC50 in test [18] is 38.9 µM (active).
A word on the CC50: it is the concentration giving 50% cytotoxicity. On to `CC1=NN(c2ccccc2)C(=O)/C1=C/C=C/C=C/N(C)C`, for which the IC50 was above 32 µM in test [19], 21.6 µM (inactive) in test [20], 23.3 µM (inactive) in [22] and 68.1 µM (active) in test [25]. In [21], the CC50 was 100 µM (active). For the same compound, the results for the EC50 in test [23] and in test [24] were > 100 µM (active) and 14.8 µM (active), respectively.
As to `O=C(Cc1ccc(Cl)cc1)Nc1cccc(S(=O)(=O)Nc2ccccc2F)c1`, the EC50 in [26] is 15.7 µM (not active); in test [27] it was 10.2 µM (not active); in test [28], 15.7 µM (not active).
